Assay [1] deals with T1, Muscarinic acetylcholine receptor M2 (Homo sapiens, UniProt P08172).
T1 sequence (P08172 whole entry): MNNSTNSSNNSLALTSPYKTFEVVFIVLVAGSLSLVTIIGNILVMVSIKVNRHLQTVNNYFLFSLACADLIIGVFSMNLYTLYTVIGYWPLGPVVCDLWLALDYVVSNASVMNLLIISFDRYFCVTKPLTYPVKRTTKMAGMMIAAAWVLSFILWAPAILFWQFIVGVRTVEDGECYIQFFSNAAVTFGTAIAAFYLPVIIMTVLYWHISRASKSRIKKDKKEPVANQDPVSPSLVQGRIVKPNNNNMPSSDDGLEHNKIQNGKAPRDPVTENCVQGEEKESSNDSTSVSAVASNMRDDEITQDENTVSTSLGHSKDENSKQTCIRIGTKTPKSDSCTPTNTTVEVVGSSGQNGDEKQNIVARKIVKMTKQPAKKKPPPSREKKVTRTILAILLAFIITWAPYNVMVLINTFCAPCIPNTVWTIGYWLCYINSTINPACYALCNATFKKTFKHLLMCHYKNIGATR

Assay [2] addresses T2, Amine oxidase [flavin-containing] A (Homo sapiens, UniProt P21397).
T2 sequence (P21397 whole entry): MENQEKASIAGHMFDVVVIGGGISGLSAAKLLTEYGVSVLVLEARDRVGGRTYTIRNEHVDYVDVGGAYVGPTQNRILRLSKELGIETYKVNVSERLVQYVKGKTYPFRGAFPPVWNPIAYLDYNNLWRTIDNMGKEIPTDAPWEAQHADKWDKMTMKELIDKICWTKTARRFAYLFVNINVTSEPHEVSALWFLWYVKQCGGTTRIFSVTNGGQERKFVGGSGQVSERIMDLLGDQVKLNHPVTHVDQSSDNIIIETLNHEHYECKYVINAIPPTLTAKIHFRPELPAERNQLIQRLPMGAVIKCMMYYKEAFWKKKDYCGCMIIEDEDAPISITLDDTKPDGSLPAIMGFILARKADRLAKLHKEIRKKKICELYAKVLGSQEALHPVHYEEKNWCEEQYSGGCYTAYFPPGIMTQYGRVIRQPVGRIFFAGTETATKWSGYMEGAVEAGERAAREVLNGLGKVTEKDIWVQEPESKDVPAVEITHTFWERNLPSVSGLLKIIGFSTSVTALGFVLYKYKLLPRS
Format: functional.

The target of the next assay is T3, Progesterone receptor (Homo sapiens, UniProt P06401).
T3 sequence (P06401 whole entry): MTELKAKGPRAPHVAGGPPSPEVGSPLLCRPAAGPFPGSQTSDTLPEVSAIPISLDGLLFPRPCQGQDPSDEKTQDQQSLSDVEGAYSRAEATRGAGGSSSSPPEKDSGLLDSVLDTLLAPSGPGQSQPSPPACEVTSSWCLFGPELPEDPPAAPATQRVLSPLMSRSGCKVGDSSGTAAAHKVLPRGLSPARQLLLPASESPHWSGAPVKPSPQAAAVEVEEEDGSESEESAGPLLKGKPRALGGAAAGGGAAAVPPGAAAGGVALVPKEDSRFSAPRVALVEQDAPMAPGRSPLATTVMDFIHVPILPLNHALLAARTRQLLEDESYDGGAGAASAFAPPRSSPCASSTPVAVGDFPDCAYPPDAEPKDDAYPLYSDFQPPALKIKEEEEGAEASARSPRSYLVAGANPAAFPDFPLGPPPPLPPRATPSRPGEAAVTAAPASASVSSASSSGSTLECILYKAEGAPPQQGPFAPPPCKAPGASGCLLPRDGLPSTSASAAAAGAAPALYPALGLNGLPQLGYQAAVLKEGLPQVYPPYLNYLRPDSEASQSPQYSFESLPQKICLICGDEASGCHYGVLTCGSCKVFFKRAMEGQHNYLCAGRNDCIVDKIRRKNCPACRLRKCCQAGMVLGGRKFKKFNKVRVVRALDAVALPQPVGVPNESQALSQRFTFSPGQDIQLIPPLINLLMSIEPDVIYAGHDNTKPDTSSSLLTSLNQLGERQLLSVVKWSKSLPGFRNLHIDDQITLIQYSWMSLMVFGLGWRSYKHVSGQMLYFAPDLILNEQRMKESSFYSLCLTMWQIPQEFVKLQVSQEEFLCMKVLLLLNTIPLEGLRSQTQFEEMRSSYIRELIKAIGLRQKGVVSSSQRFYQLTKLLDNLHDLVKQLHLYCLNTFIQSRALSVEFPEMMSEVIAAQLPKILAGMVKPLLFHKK

Assay [3] has as its target Prostaglandin G/H synthase 1 (Homo sapiens, UniProt P23219). Format: functional.
The target in another assay is Cannabinoid receptor 1 (Homo sapiens, UniProt P21554). Format: functional, cell-based.
Sequence of Cannabinoid receptor 1 (P21554 whole entry): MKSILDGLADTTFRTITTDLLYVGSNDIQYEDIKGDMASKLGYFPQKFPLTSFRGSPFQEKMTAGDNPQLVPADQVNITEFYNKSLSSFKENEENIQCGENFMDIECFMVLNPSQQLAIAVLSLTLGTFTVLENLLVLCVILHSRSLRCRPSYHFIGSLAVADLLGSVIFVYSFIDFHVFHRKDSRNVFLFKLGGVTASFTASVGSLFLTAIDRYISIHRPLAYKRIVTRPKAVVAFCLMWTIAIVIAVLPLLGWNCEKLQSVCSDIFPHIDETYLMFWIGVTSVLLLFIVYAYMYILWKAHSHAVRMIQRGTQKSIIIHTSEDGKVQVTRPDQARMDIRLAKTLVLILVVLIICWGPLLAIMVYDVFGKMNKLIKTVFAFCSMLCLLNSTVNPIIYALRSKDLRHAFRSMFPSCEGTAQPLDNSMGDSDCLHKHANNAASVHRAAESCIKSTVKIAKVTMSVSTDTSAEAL
Assay [4] deals with T4, 5-hydroxytryptamine receptor 3A (Homo sapiens, UniProt P46098).
T4 sequence (P46098 whole entry): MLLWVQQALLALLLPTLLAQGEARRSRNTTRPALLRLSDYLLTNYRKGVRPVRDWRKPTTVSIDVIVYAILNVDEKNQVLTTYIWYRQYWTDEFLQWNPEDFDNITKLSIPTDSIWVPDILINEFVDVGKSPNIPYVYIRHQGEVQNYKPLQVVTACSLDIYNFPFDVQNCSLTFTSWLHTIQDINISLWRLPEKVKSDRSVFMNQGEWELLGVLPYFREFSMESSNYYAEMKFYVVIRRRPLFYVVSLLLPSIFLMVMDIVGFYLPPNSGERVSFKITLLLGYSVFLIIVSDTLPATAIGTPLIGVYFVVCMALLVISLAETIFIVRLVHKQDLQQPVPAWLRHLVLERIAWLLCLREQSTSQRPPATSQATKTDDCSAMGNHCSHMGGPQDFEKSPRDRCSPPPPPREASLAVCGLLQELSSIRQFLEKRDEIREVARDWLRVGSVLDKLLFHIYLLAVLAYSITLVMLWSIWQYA
Type of assay: functional.

The values below come from ChEMBL document CHEMBL5291721, “A preclinical secondary pharmacology resource illuminates target-adverse drug reaction associations of marketed drugs” (Nat Commun, 2023).
Further: assay procedure not described here.

Sequence of Prostaglandin G/H synthase 1 (P23219 whole entry): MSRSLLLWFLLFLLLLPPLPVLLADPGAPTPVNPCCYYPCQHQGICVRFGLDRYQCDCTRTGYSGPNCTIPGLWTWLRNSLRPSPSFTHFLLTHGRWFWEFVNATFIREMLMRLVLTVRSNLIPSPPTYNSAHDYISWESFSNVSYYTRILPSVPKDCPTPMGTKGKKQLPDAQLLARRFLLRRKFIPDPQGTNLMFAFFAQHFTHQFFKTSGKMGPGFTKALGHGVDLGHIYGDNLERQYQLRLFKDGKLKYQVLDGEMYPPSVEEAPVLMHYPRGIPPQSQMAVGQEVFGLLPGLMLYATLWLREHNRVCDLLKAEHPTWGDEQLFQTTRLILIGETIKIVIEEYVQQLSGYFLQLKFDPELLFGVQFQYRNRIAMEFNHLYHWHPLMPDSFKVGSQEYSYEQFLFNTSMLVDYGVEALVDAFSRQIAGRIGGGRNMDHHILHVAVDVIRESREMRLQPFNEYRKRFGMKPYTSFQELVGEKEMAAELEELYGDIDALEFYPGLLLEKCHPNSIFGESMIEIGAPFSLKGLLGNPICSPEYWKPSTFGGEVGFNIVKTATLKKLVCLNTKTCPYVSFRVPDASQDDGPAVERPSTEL

As for `O=C(O)COc1ccc(C(=O)c2cccs2)c(Cl)c1Cl`, the AC50 (in assay [1]; in assay [2]; at Progesterone receptor; in assay [3]) was above 30 µM in each case.

In the case of `COc1c2ccoc2cc2oc(=O)ccc12` [BERGAPTEN], the AC50 in assay [1] was above 30 µM; in assay [2] it was above 10 µM; at Progesterone receptor, 12.4 µM; in assay [3], above 30 µM.

Consider `CNC(=O)Oc1cccc2ccccc12` [CARBARIL], for which the half-maximal activity concentration (AC50) is above 30 µM in assay [1], above 30 µM in assay [2], 14.3 µM at Progesterone receptor and 4.19 µM in assay [3].

In the case of `CC[C@H](C)C[C@H](C)CCCCCCCCC(=O)N[C@H]1C[C@@H](O)[C@@H](NCCN)NC(=O)[C@@H]2[C@@H](O)CCN2C(=O)[C@H]([C@H](O)CCN)NC(=O)[C@H]([C@H](O)[C@@H](O)c2ccc(O)cc2)NC(=O)[C@@H]2C[C@@H](O)CN2C(=O)[C@H]([C@@H](C)O)NC1=O` [CASPOFUNGIN], the concentration at half-maximal activity (AC50) in assay [1] is 10.8 µM; in assay [2], above 30 µM; at Progesterone receptor, 5.7 µM; in assay [3], 3.63 µM.

For the compound `C/C=C/C/C=C/CCC(=O)[C@H]1O[C@H]1C(N)=O` [CERULENIN], the half-maximal activity concentration (AC50) was above 30 µM in assay [1], above 30 µM in assay [2], above 30 µM at Progesterone receptor and 15.5 µM in assay [3].

With `CN(C)[C@@H]1C(O)=C(C(N)=O)C(=O)[C@@]2(O)C(O)=C3C(=O)c4c(O)ccc(Cl)c4[C@@](C)(O)[C@H]3C[C@@H]12` [CHLORTETRACYCLINE], the AC50 (in assay [1]; in assay [2]; on Progesterone receptor; in assay [3]) was above 30 µM throughout.

With `N[C@@H](CS)C(=O)O` [CYSTEINE], the concentration at half-maximal activity (AC50) (in assay [1]; in assay [2]; on Progesterone receptor; in assay [3]) was above 30 µM throughout.

As for `C[C@H]1O[C@@H](n2cc(F)c(=O)[nH]c2=O)[C@H](O)[C@@H]1O` [DOXIFLURIDINE], the AC50 (in assay [1]; in assay [2]; on Progesterone receptor; in assay [3]) was above 30 µM each time.

On to `OC[C@H]1O[C@@H](c2ccc(Cl)c(Cc3ccc(O[C@H]4CCOC4)cc3)c2)[C@H](O)[C@@H](O)[C@@H]1O` [EMPAGLIFLOZIN], for which the AC50 (in assay [1]; in assay [2]; on Progesterone receptor; in assay [3]) was above 30 µM in each case.

`CC(C)(O)CNc1nc(Nc2ccnc(C(F)(F)F)c2)nc(-c2cccc(C(F)(F)F)n2)n1` [ENASIDENIB]: the concentration at half-maximal activity (AC50) is above 30 µM in assay [1], above 30 µM in assay [2], above 30 µM at Progesterone receptor and 9.18 µM in assay [3].

For the compound `CCc1nc(C(N)=O)c(Nc2ccc(N3CCC(N4CCN(C)CC4)CC3)c(OC)c2)nc1NC1CCOCC1` [GILTERITINIB], the AC50 in assay [1] was 16.4 µM; in assay [2], above 30 µM; on Progesterone receptor it was above 30 µM; in assay [3], above 30 µM.

`O=C(O)CO` [GLYCOLIC ACID]: the AC50 (in assay [1]; in assay [2]; at Progesterone receptor; in assay [3]) was above 30 µM in each case.

On to `CC[C@H](c1ccc(O)cc1)[C@@H](CC)c1ccc(O)cc1` [HEXESTROL], for which the concentration at half-maximal activity (AC50) in assay [1] is 18.7 µM; in assay [2], above 30 µM; on Progesterone receptor, 1.85 µM; in assay [3], 16.4 µM.

Consider `CC(C)Cc1ccc(C(C)C(=O)O)cc1` (stereo not given) [IBUPROFEN], for which the half-maximal activity concentration (AC50) (in assay [1]; at Cannabinoid receptor 1; in assay [4]; in assay [2]; on Progesterone receptor) was above 30 µM each time.

Take `O=C1/C(=C2\Nc3ccc(S(=O)(=O)O)cc3C2=O)Nc2ccc(S(=O)(=O)O)cc21` [INDIGOTINDISULFONATE]: the half-maximal activity concentration (AC50) (in assay [1]; in assay [2]; at Progesterone receptor; in assay [3]) was above 30 µM in each case.

As for `OC[C@H]1O[C@@H](c2ccc(F)c(Cc3cc4ccccc4s3)c2)[C@H](O)[C@@H](O)[C@@H]1O` [IPRAGLIFLOZIN], the half-maximal activity concentration (AC50) (in assay [1]; in assay [2]; at Progesterone receptor; in assay [3]) was above 30 µM in each case.

Take `CC(C)C[C@H](NC(=O)CNC(=O)c1cc(Cl)ccc1Cl)B(O)O` [IXAZOMIB]: the AC50 (in assay [1]; in assay [2]; at Progesterone receptor; in assay [3]) was above 30 µM each time.

Regarding `CC(CCc1ccccc1)NCC(O)c1ccc(O)c(C(N)=O)c1` (stereo not given) [LABETALOL], the AC50 (in assay [1]; in assay [2]; on Progesterone receptor; in assay [3]) was above 30 µM throughout.

`C=CCN1CC[C@]23CCCC[C@H]2[C@H]1Cc1ccc(O)cc13` [LEVALLORPHAN]: the half-maximal activity concentration (AC50) was 8.91 µM in assay [1], above 30 µM in assay [2], above 30 µM at Progesterone receptor and 8.54 µM in assay [3].

With `C[N+](C)(C)C[C@H](O)CC(=O)[O-]` [LEVOCARNITINE], the AC50 (in assay [1]; in assay [2]; at Progesterone receptor; in assay [3]) was above 30 µM throughout.

As for `CN1CCCCC1CCN1c2ccccc2Sc2ccc([S+](C)[O-])cc21` (stereo not given) [MESORIDAZINE], the AC50 in assay [1] is 0.153 µM; in assay [2] it was above 30 µM; at Progesterone receptor it was above 30 µM; in assay [3], above 30 µM.

Turning to `C[C@@H]1C[C@H]2[C@@H]3CCC4=CC(=O)C=C[C@]4(C)[C@@]3(Cl)[C@@H](O)C[C@]2(C)[C@@]1(OC(=O)c1ccco1)C(=O)CCl` [MOMETASONE FUROATE], the half-maximal activity concentration (AC50) in assay [1] is above 30 µM; in assay [2], above 30 µM; in assay [3], 13.7 µM.

As for `Cc1ccccc1C(=O)Nc1ccc(C(=O)N2CCCC(N(C)C)c3ccccc32)cc1` (stereo not given) [MOZAVAPTAN], the half-maximal activity concentration (AC50) (in assay [1]; in assay [2]; at Progesterone receptor; in assay [3]) was above 30 µM in each case.

Take `COc1cc2nc(N3CCN(C(=O)C4CCCO4)CC3)nc(N)c2cc1OC` (stereo not given) [TERAZOSIN]: the AC50 in assay [1] is above 30 µM; on Cannabinoid receptor 1 it was above 30 µM; in assay [4], above 10 µM; in assay [2] it was above 30 µM; in assay [3], above 30 µM.

In the case of `CC1=C(/C=C/C(C)=C/C=C/C(C)=C/C(=O)O)C(C)(C)CCC1` [TRETINOIN], the concentration at half-maximal activity (AC50) is above 30 µM in assay [1], above 30 µM in assay [2] and 4.24 µM on Progesterone receptor.
